From patent publication US20210299282A1, “Device for Collecting and Culturing Fish Embryos and Method for Evaluating Combined Toxicity of Thiamethoxam and Tetraconazole” (priority 2020, published 2021)
≈ marks a conversion by molar mass, not a printed value.

Assays:
[1] = Toxicity test for single pesticide on zebrafish embryos (96 h semi-static exposure); assay type: in vivo, Zebrafish (Danio rerio); conditions: zebrafish, in vivo; after 96 hours of exposure; single pesticide; embryos exposed from 3 hpf; read-out: LC50 and 95% confidence limits for zebrafish embryos when used alone
Method: (§1) S1: The embryo culture component 3 is assembled; toxicity exposure is performed after 3 hours post-fertilization (3 hpf) of embryos; after collecting the zebrafish embryos for 3 hours, the abnormal and dead embryos are removed, and the normally divided embryos are picked out under an inverted microscope, and the selected embryos are loaded in into the culture well 34 in an amount of 10 embryos per well; after removing the water as much as possible, 10 mL of single pesticide solution with different concentrations are added to each well in the treatment group separately, and an equal volume of standard dilution water is added to the blank control group and the solvent control group, respectively. Three replicates are set for each treatment group, blank control group and solvent control group, and every 2 wells are served as one replicate, that is, 20 embryos are one replicate. Each test pesticide is set with 5 to 7 concentrations using serial dilution method with a geometrical ratio, and each concentration is set with three repeats.
(§2) S2: The semi-static method is used, that is, the medium in the wells are replaced with fresh pesticide solution every 24 hours, and the dead embryos are picked out in time. When the medium is replaced with the fresh pesticide solution, the top plate 32 is pulled up, the original culture medium flows through the leakage hole 35 into the cavity of the cavity plate 31, and then the original culture medium is poured out together. Then, the top plate 32 is mounted on the cavity plate 31, and the fresh pesticide solution is added to the culture well 34 loaded with embryos.
(§3) S3: After 96 hours of toxicity exposure, the embryo mortality and poisoning symptoms are recorded. Embryo death was characterized by egg coagulation, somite disruption, non-detachment of tail or lack of heartbeat; common symptoms of embryo poisoning include the following deformities: egg coagulation, pericardial edema, yolk sac edema, spine curvature, tail bending, and others (FIG. 5). The mortality M is calculated according to the formula (I),
(§4) In formula (I), D is the number of dead embryos and N is the total number of embryos. DPS statistical analysis software (version number: V15.10) is used to statistically analyze the mortality data of zebrafish embryos with the probabilistic value analysis method, and the 50% lethal concentration LC50 and 95% confidence limits of the fish embryos are calculated.

[2] = tested on: zebrafish embryos; assay: as above; assay type: in vivo, Zebrafish (Danio rerio); conditions: single pesticide treatment group; 96 h exposure (tetraconazole: high concentration group)
Method: as §1, §2, §3, §4

| Structure (SMILES) | LC50 at 96 h [1] | poisoning symptoms of zebrafish embryos [2] |
| --- | --- | --- |
| FC(F)C(F)(F)OCC(Cn1cncn1)c1ccc(Cl)cc1Cl (stereo not shown) [tetraconazole] | 11 µg/mL (≈ 29.5 µM) | pericardial edema, yolk sac edema, spine curvature, tail bending, and others were observed |
| CN1COCN(Cc2cnc(Cl)s2)/C1=N\[N+](=O)[O-] [thiamethoxam] | 246 µg/mL (≈ 844 µM) | not obvious |
